# Assays:
# intestinal fungi = experiment: DSS colitis in ΔCX3CR1 mice with fungal targeting by fluconazole; format: in vivo; conditions: 3% DSS in drinking water, fluconazole 0.5 mg/ml in drinking water starting 4 days prior the first DSS dose, FIG. 3E-G
# Protocol: Cx3cr1^GFP/GFP, C57BL/6J, Cd11c-cre^+/+, Irf4^fl/fl, Cx3cr1^tm3(DTR)Litt/J (Cx3cr1^DTR), Syk^fl/fl, Cx3cr1^tm2.1(cre/ERT2)Jung/J (Cx3cr1-cre/ERT2^+/+), Batf3^−/−, Thy1.1, and OVA-specific CD4^+ (OT-II) T-cell receptor-transgenic (H-2^b) mice were purchased from the Jackson Laboratories (Bar Harbor, Me.). […]. For depletion, mice generated through such breeding (Cd11c-cre^+/− Cx3cr1^DTR mice) and the respective littermate controls (Cd11c-cre^−/− Cx3cr1^DTR) were injected for three consecutive days with 100 ng of DT i.p followed by maintenance injection every other day for the length of the experiments. Depleted mice were designated throughout the study as ΔCX3CR1 mice. Irf4^fl/fl mice were bred to hemizygous Cd11c-cre^+/− mice to allow for genetic ablation of CD11c^+ CD11b^+ CD103^+ dendritic cells (Cd11c-cre^+/− Irf4^fl/fl mice, designated throughout the study as ΔIrf4 mice) and the generation of littermate controls (Cd11c-cre^−/− Irf4^fl/fl mice). Syk^fl/fl mice were bred to Cx3cr1-cre/ERT2^+/+ to allow for the selective depletion of Syk in CX3CR1 expressing cells upon administration of tamoxifen. […]
# Cx3cr1^DTR or littermate control mice were injected with DT for three consecutive days, prior to the induction of colitis with 3% (w/v) Dextran sulfate sodium (DSS, MP Biomedicals, LLC, Aurora, Ohio) in the drinking water. […] Body weight and the presence of occult blood were assessed daily. […]
# [1] = test system: most Candida species and other dimorphic fungi; conditions: when used during the onset of intestinal disease; cited from earlier work
structure (smiles),measurement,setting,value
OC(Cn1cncn1)(Cn1cncn1)c1ccc(F)cc1F [fluconazole],"intestinal disease (DSS colitis: body weight change, neutrophil infiltration in colonic LP, H&E histology)",intestinal fungi,significantly ameliorated intestinal disease
same,colitis in mice with defects in antifungal immunity,[1],ameliorates colitis

# Reference: patent US11712436B2, “Theranostic test for antifungal treatment of inflammatory diseases” (Cornell University, priority 2017, dated 2023)
